Laboratory results: patent US5227508A, “3-deoxy-3-substituted analogs of phosphatidylinositol” (Mayo Foundation for Medical Education and Research, priority 1992, dated 1993)
Where two headings read alike, the source gives them in different places.

Experiments:
[1] = system: NIH 3T3 cells (wild type); assay: Cell growth inhibition, wild type NIH 3T3 cells, 3 days; assay type: cell-based; details: for IC50: Mus musculus, NIH3T3, 72 h, 3 days
Experimental: (§1) Wild type NIH 3T3 cells and v-sis oncogene-expressing NIH 3T3 cells were maintained in bulk culture in DMEM with 10% heat inactivated calf serum and passaged using 0.05% trypsin and 0.5 mM EDTA. For cell growth assays, the cells were plated at a density of 5×10^3 cells in 1.6 cm diameter culture wells in 0.5 ml DMEM containing 10% heat inactivated calf serum and allowed to attach to the surface of the well for 24 hr. The medium was then replaced with fresh medium containing the myo-inositol analogues. […] Adherent cells were harvested after 3 days and were counted using an automated cell counter. Inhibition of cell growth caused by serial concentrations of analogues was expressed as a percentage of the number of nontreated cells at the end of the 3-day incubation period. Incubations were conducted in quadruplicate. The mean concentration of analogue required to cause 50% inhibition of cell growth (IC50)±S.E. was calculated from nonlinear least-squares regression analysis of the cell-proliferation concentration data (P. L. Appel et al., Cancer Chemother. Pharmacol., 17, 47 (1986)).

[2] = system: v-sis oncogene-expressing NIH 3T3 cells; assay: Cell growth inhibition, v-sis oncogene-expressing NIH 3T3 cells, 3 days; assay type: cell-based; details: for IC50: Mus musculus, NIH3T3, 72 h, 3 days
Experimental: as §1

[3] = system: normal NIH 3T3 cells and several oncogene transformed NIH 3T3 cell lines; details: in culture; prior work (A. P. Kozikowski); cited from earlier work
HT-29 cells = assay: Soft agar colony forming assay, HT-29 colon carcinoma, 7 days; assay type: cell-based; details: Homo sapiens, HT-29, 168 h, medium with 40 μM myo-inositol, read-out: IC50 for inhibition of colony formation
Experimental: The human colon carcinoma cell line, HT-29, was chosen as being representative of a clinically very important, slow growing and chemotherapy resistant human solid tumor. Many human colon cancer lines, including HT-29, have the v-sis oncogene (D. L. Trainer et al., Int. J. Cancer, 41, 287 (1988)). The growth of HT-29 cells was measured by colony formation in the soft agar colony forming assay over 7 days, with automated colony counting using a Omicon 3600 Image Analysis System, as described previously by M. C. Alley et al., 44, 549 (1984).
All soft-agarose cultures were performed in similar fashion. Each 35-mm culture dish contained a base layer consisting of 0.5 ml of standard DMEM culture medium (with 40 μM myo-inositol) with 0.5% agarose. On Day 0, cells in bulk culture were dissociated with trypsin and EDTA, washed once in growth medium, and subcultured by layering 1×10^4 viable cells in 0.5 ml of growth medium with 0.3% agarose over each base layer. Cultures were maintained in cell culture incubators at 37° C., 5% CO2 :95% air, and 100% relative humidity. On Day 1 (24 hr later), an upper layer of 1 ml of growth medium containing drug was applied to each culture. Cell lines formed a sufficient number of detectable colonies (>60 μm diameter) for analysis following 7 days of incubation. […]

[4] = - myo-inositol, ± S.E. of mean, read-out: NIH IC50
[5] = - myo-inositol, ± S.E. of mean, read-out: v-sis NIH IC50

SMILES | IC50 ([1]; + myo-inositol, read-out: NIH IC50 (class symbol)) | IC50 [1, 4] | IC50 ([2]; + myo-inositol, read-out: v-sis NIH IC50 (class symbol)) | IC50 [2, 5] | cell growth inhibitory activities [3] | IC50 ([1]; + myo-inositol, ± S.E. of mean, read-out: NIH IC50) | antagonism of growth inhibition by myo-inositol ([1]; myo-inositol at physiological concentrations, wild type NIH 3T3) | more potent inhibitor of cell growth than the simple myo-inositol analogue ([1]; wild type NIH 3T3 cells, compared with D-3-deoxy-fluoro-myo-inositol) | IC50 ([2]; + myo-inositol, ± S.E. of mean, read-out: v-sis NIH IC50) | antagonism of growth inhibition by myo-inositol ([2]; myo-inositol at physiological concentrations, v-sis NIH 3T3) | selectivity for growth inhibition of v-sis compared to wild type NIH 3T3 cell ([2]; v-sis vs wild type NIH 3T3) | IC50 (HT-29 cells)
O[C@@H]1[C@@H](O)[C@H](O)[C@@H](F)[C@@H](O)[C@H]1O [3-deoxy-3-fluoro-myo-inositol, reference compound] | > 33000 µM | 7000 µM | > 33000 µM | 1000 µM | exhibit cell growth inhibitory activities |  |  |  |  |  |  | 
CCCCCCCCCCCCCCCC(=O)OC[C@H](COP(=O)(O)O[C@H]1[C@H](O)[C@@H](O)[C@H](O)[C@@H](F)[C@H]1O)OC(=O)CCCCCCCCCCCCCCC [Compound 7, 3-Deoxy-3-fluoro-D-myo-inositol [(R)-2,3-bis(hexadecanoyloxy)propyl] hydrogen phosphate] |  | 110 ± 20 µM |  | 107 ± 15 µM |  | 99 ± 13 µM | not antagonized by myo-inositol at physiological concentrations | up to 1,000 fold | 81 ± 11 µM | not antagonized by myo-inositol at physiological concentrations | lost | 53 ± 9 µM
